Reference: US7132547B2, “Preventives/remedies for urinary disturbance” (priority 2001, dated 2006)

Experiments:
Hartley male guinea pigs = experiment: Effect on blood pressure in anesthetized guinea pigs; type: in vivo, guinea pig; details: tamsulosin 0.01 mg/kg, Example 20 0.1 mg/kg
Experimental: Hartley male guinea pigs (Slc) weighing 300 to 350 g was anesthetized with urethane (1.2 g/kg), and retained, a cervical region was incised to expose a left common carotid artery. A polyethylene tube filled with physiological saline containing heparin (10 U.I./ml) was inserted into an artery, and blood pressure was measured with a pressure transducer. A cannulae for administering test compound was inserted into a vein at an end of left hind leg, and a test compound dissolved in distilled water was administered therethrough at 0.5 mL/kg. The blood pressure was recorded at 20 Hz using an analogue data inputting apparatus (MP-100, BIOPAC Systems), and analyzed by analyzing software (AcqKnowledge 3.5.3, BIOPAC Systems). Example compound and tamsulosin were studied for a dose at which effects were recognized in the aforementioned test a (Pressure Flow Study), and an average blood pressure just before administration of test compound and an average blood pressure 15 minutes after administration were measured. Data were statistically treated by Paired t-test.

[1] = tested on: Hartley male guinea pigs loaded with phenylephrine; experiment: Pressure Flow Study using guinea pigs loaded with phenylephrine; type: in vivo, guinea pig; details: i.v., tamsulosin 0.01 mg/kg, Example 20 0.1 mg/kg, urethane-anesthetized, phenylephrine 3 μg/animal/min
Experimental: Hartley male guinea pigs (Slc) weighing 300 to 350 g was anesthetized with urethane (1.2 g/kg, i.p.), and a median was incised to expose bladder. Two polyethylene tubes were inserted into bladder, and one of them was used for injecting a physiological saline and the other was used for measuring a bladder internal pressure. A cannulae was inserted into a left femoral vein, and phenylephrine was continuously administered intravenously at 3 μg/animal/min until the completion of experiment. A physiological saline was injected into bladder at a rate of 0.3 mL/min, and injection was stopped when urination was confirmed. The urinated urine weight was measured with an electron balance (HX-400, A & D) at real time. Analogue data of bladder internal pressure and urine weight were inputted into an AD transducer (MP-100, BIOPAC Systems), and digital signals were analyzed with exclusive analyzing software (AcqKnowledge 3.5.3, BIOPAC Systems). The sampling rate of data was 10 Hz, and data of urination amount and urine flow rate were subjected to a lowcut filter at 0.5 Hz in order to remove noises. The value of urine weight was differentiated to calculate urine flow rate (Q), and maximum urine flow rate (Qmax) at urination and bladder internal pressure (Pves (Qmax)) at maximum urine flow were calculated. The urination weight 1 g was converted into 1 mL to calculate the urination amount, and divided by bladder volume to obtain voiding efficiency (Voiding Efficiency). Example compound was dissolved in DMSO, and the solution was intravenously administered at 0.5 mL/kg. 10 minutes after administration of test compound, urinary reflection was recorded again, and change in urine flow rate (ΔQmax), and change in bladder internal pressure (ΔPves(Qmax)) and voiding efficiency were assessed. The change in urine flow rate (ΔQmax) and change in bladder internal pressure (ΔPves. (Qmax)) were an amount of change (Δ value) obtained by subtracting each value before administration of test compound from each value after administration, and voiding efficiency was assessed by a relative value (% of pre-value) of after administration of test compound relative to before administration. Tamsulosin which is a known α1 receptor antagonist was measured similarly. A significance diffenence was tested by a Dunnett test by comparing with each value of a vehicle (DMSO)-administered group.

[2] = 10 minutes after administration minus before

Structure (SMILES): COc1ccccc1CCNCCCCCC(=O)c1cc2c3c(c1)CCN3C(=O)CC2.Cl [Example 20, 8-(6-[[2-(2-Methoxyphenyl)ethyl]amino]hexanoyl]-1,2,5,6-tetrahydro-4H-pyrrolo[3,2,1-ij]quinolin-4-one hydrochloride]
- Blood pressure, after administration (Hartley male guinea pigs; average blood pressure 15 minutes after i.v. administration): 54.6 ± 2.8 mmHg
- Blood pressure, before administration (Hartley male guinea pigs; average blood pressure just before i.v. administration): 53.5 ± 3.6 mmHg
- change in bladder internal pressure (ΔPves(Qmax)) [1, 2]: −1.73 ± 1.54 cmH2O
- change in maximum urine flow rate (ΔQmax) [1, 2]: 0.060 ± 0.016 mL/s
- voiding efficiency (% of pre-value) ([1]; after administration relative to before): 150.1 ± 20.1 %
